# US20160271263A1 (Novo Nordisk A/S, priority 2010, published 2016)
# Numbered stars: 1 amine (or outer) side, 2 acyl side, 3 side chain; on linkers, the order of the positions; unused ones are H or OH. Square brackets hold non-standard residues; d marks the D form. Side chains are listed from the residue outwards. Peptide text beside a SMILES is read from it. * marks the point of attachment. C18 diacid = O=C(O)CCCCCCCCCCCCCCCCC(=O)*; γGlu = O=C(O)[C@H](CCC(=O)[*:2])N[*:1]; AEEA = NCCOCCOCC(=O)O
# Target: glucagon receptor (Homo sapiens, UniProt P47871)
# Sequence (P47871 26-477): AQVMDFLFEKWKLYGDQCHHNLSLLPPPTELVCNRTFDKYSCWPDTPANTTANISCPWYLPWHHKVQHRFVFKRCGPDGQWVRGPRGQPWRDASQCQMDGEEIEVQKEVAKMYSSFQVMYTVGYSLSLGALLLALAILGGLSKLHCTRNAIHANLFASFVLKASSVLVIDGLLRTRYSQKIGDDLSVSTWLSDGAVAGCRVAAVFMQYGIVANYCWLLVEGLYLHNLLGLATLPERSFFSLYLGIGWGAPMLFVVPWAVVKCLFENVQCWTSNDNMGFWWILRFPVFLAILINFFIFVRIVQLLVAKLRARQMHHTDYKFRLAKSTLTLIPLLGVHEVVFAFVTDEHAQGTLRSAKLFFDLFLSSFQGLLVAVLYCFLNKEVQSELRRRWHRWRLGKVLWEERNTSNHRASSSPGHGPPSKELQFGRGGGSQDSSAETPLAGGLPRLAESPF
# Assay: cell-based
row,Structure (SMILES),EC50
1,CC(C)C[C@H](NC(=O)[C@H](CC(C)C)NC(=O)[C@H](Cc1c[nH]c2ccccc12)NC(=O)[C@H](CCC(N)=O)NC(=O)[C@@H](NC(=O)[C@H](Cc1ccccc1)NC(=O)[C@H](CC(=O)O)NC(=O)[C@H](CCC(N)=O)NC(=O)[C@H](C)NC(=O)[C@H](CCCNC(=N)N)NC(=O)[C@H](CCCNC(=N)N)NC(=O)[C@H](CO)NC(=O)[C@H](CC(=O)O)NC(=O)[C@H](CC(C)C)NC(=O)[C@H](Cc1ccc(O)cc1)NC(=O)[C@H](CCCCN)NC(=O)[C@H](CO)NC(=O)[C@H](Cc1ccc(O)cc1)NC(=O)[C@H](CC(=O)O)NC(=O)[C@H](CO)NC(=O)[C@@H](NC(=O)[C@H](Cc1ccccc1)NC(=O)[C@@H](NC(=O)CNC(=O)[C@H](CCC(N)=O)NC(=O)[C@H](CO)NC(=O)[C@@H](N)Cc1c[nH]cn1)[C@@H](C)O)[C@@H](C)O)C(C)C)C(=O)N[C@@H](CC(N)=O)C(=O)N[C@@H](CCCCNC(=O)COCCOCCNC(=O)COCCOCCNC(=O)CC[C@H](NC(=O)CCCCCCCCCCCCCCCCC(=O)O)C(=O)O)C(=O)O [Example 10],0.046 nM
2,CC(C)C[C@H](NC(=O)[C@H](Cc1ccc(O)cc1)NC(=O)[C@H](CCCCN)NC(=O)[C@H](CO)NC(=O)[C@H](Cc1ccc(O)cc1)NC(=O)[C@H](CC(=O)O)NC(=O)[C@H](CO)NC(=O)[C@@H](NC(=O)[C@H](Cc1ccccc1)NC(=O)[C@@H](NC(=O)CNC(=O)[C@H](CCC(N)=O)NC(=O)[C@H](CO)NC(=O)[C@@H](N)Cc1c[nH]cn1)[C@@H](C)O)[C@@H](C)O)C(=O)N[C@@H](CC(=O)O)C(=O)N[C@@H](CO)C(=O)N[C@@H](CCCNC(=N)N)C(=O)N[C@@H](CCCNC(=N)N)C(=O)N[C@@H](C)C(=O)N[C@@H](CCC(N)=O)C(=O)N[C@@H](CC(=O)O)C(=O)N[C@@H](Cc1ccccc1)C(=O)N[C@H](C(=O)N[C@@H](CCCCNC(=O)COCCOCCNC(=O)COCCOCCNC(=O)CC[C@H](NC(=O)CCCCCCCCCCCCCCCCC(=O)O)C(=O)O)C(=O)N[C@@H](Cc1c[nH]c2ccccc12)C(=O)N[C@@H](CC(C)C)C(=O)N[C@@H](CC(C)C)C(=O)N[C@H](C(=O)N[C@H](C(=O)O)[C@@H](C)O)[C@@H](C)O)C(C)C [Example 15],0.024 nM
3,"CC(C)C[C@H](NC(=O)[C@H](Cc1ccc(O)cc1)NC(=O)[C@H](CCCCN)NC(=O)[C@H](CO)NC(=O)[C@H](Cc1ccc(O)cc1)NC(=O)[C@H](CC(=O)O)NC(=O)[C@H](CO)NC(=O)[C@@H](NC(=O)[C@H](Cc1ccccc1)NC(=O)[C@@H](NC(=O)CNC(=O)[C@H](CCC(N)=O)NC(=O)[C@@H](CO)NC(=O)[C@@H](N)Cc1c[nH]cn1)[C@@H](C)O)[C@@H](C)O)C(=O)N[C@@H](CC(=O)O)C(=O)N[C@@H](CCC(=O)O)C(=O)N[C@@H](CCC(N)=O)C(=O)N[C@@H](C)C(=O)N[C@@H](C)C(=O)N[C@@H](CCCNC(=N)N)C(=O)N[C@@H](CC(=O)O)C(=O)N[C@@H](Cc1ccccc1)C(=O)N[C@H](C(=O)N[C@@H](CCCCNC(=O)COCCOCCNC(=O)COCCOCCNC(=O)CC[C@H](NC(=O)CCCCCCCCCCCCCCCCC(=O)O)C(=O)O)C(=O)N[C@@H](Cc1c[nH]c2ccccc12)C(=O)N[C@@H](CC(C)C)C(=O)N[C@@H](CC(C)C)C(=O)N[C@@H](CC(N)=O)C(=O)N[C@H](C(N)=O)[C@@H](C)O)C(C)C [Example 30, N^ε24-([2-[2-[2-[[2-[2-[2-[[(4S)-5-hydroxy-4-[(18-hydroxy-18-oxooctadecanoyl)amino]-5-oxopentanoyl]amino]ethoxy]ethoxy]acetyl]amino]ethoxy]ethoxy]acetyl]) [D-Ser^2,Glu^16,Gln^17,Ala^18,Arg^20,Lys^24,Leu^27] Glucagon peptide amide] (H-H[dS]QGTFTSDYSKYLDEQAARDFVK([AEEA-AEEA-γGlu-C18 diacid])WLLNT-NH2; N-terminus assumed)",0.137 nM

# Further lines, results first:
row,EC50,Structure (SMILES)
1,0.127 nM,"CC(C)C[C@H](NC(=O)[C@H](Cc1ccc(O)cc1)NC(=O)[C@H](CCCNC(=N)N)NC(=O)[C@H](CO)NC(=O)[C@H](Cc1ccc(O)cc1)NC(=O)[C@H](CC(=O)O)NC(=O)[C@H](CO)NC(=O)[C@@H](NC(=O)[C@H](Cc1ccccc1)NC(=O)[C@@H](NC(=O)CNC(=O)[C@H](CCC(N)=O)NC(=O)[C@H](CO)NC(=O)[C@@H](N)Cc1c[nH]cn1)[C@@H](C)O)[C@@H](C)O)C(=O)N[C@@H](CC(=O)O)C(=O)N[C@@H](CO)C(=O)N[C@@H](CCCNC(=N)N)C(=O)N[C@@H](CCCNC(=N)N)C(=O)N[C@@H](C)C(=O)N[C@@H](CCC(N)=O)C(=O)N[C@@H](CC(=O)O)C(=O)N[C@@H](Cc1ccccc1)C(=O)N[C@H](C(=O)N[C@@H](CCCCNC(=O)CC[C@H](NC(=O)CC[C@H](NC(=O)COCCOCCNC(=O)COCCOCCNC(=O)CC[C@H](NC(=O)CCCCCCCCCCCCCCCCC(=O)O)C(=O)O)C(=O)O)C(=O)O)C(=O)N[C@@H](Cc1c[nH]c2ccccc12)C(=O)N[C@@H](CC(C)C)C(=O)N[C@@H](CC(C)C)C(=O)N[C@@H](CC(N)=O)C(=O)N[C@H](C(=O)O)[C@@H](C)O)C(C)C [Example 72, N^ε24-[(4S)-4-carboxy-4-[[(4S)-4-carboxy-4-[[2-[2-[2-[[2-[2-[2-[[(4S)-4-carboxy-4-(17-carboxyheptadecanoylamino)butanoyl]amino]ethoxy]ethoxy]acetyl]amino]ethoxy]ethoxy]acetyl]amino]butanoyl]amino]butanoyl]-[Arg^12,Lys^24,Leu^27]-Glucagon] (H-HSQGTFTSDYSRYLDSRRAQDFVK([γGlu-γGlu-AEEA-AEEA-γGlu-C18 diacid])WLLNT-OH; N-terminus and C-terminus assumed)"
2,0.016 nM,"CC(C)C[C@H](NC(=O)[C@H](Cc1ccc(O)cc1)NC(=O)[C@H](CCCCN)NC(=O)[C@H](CO)NC(=O)[C@H](Cc1ccc(O)cc1)NC(=O)[C@H](CC(=O)O)NC(=O)[C@H](CO)NC(=O)[C@@H](NC(=O)[C@H](Cc1ccccc1)NC(=O)[C@@H](NC(=O)CNC(=O)[C@H](CCC(N)=O)NC(=O)[C@H](CO)NC(=O)[C@@H](N)Cc1c[nH]cn1)[C@@H](C)O)[C@@H](C)O)C(=O)N[C@@H](CC(=O)O)C(=O)N[C@@H](CO)C(=O)N[C@@H](CCCCN)C(=O)N[C@@H](CCCNC(=N)N)C(=O)N[C@@H](C)C(=O)N[C@@H](CCC(N)=O)C(=O)N[C@@H](CCC(=O)O)C(=O)N[C@@H](Cc1ccccc1)C(=O)N[C@H](C(=O)N[C@@H](CCCCNC(=O)COCCOCCNC(=O)COCCOCCNC(=O)CC[C@H](NC(=O)CCCCCCCCCCCCCCCCC(=O)O)C(=O)O)C(=O)N[C@@H](Cc1c[nH]c2ccccc12)C(=O)N[C@@H](CC(C)C)C(=O)N[C@@H](CC(C)C)C(=O)N[C@@H](CC(N)=O)C(=O)N[C@H](C(N)=O)[C@@H](C)O)C(C)C [Example 35, N^ε24-([2-[2-[2-[[2-[2-[2-[[(4S)-5-hydroxy-4-[(18-hydroxy-18-oxooctadecanoyl)amino]-5-oxopentanoyl]amino]ethoxy]ethoxy]acetyl]amino]ethoxy]ethoxy]acetyl])[Lys^17,Glu^21, Lys^24, Leu^27]Glucagon peptide amide] (H-HSQGTFTSDYSKYLDSKRAQEFVK([AEEA-AEEA-γGlu-C18 diacid])WLLNT-NH2; N-terminus assumed)"
3,0.115 nM,"CC(C)C[C@H](NC(=O)[C@H](Cc1ccc(O)cc1)NC(=O)[C@H](CCCCN)NC(=O)[C@H](CO)NC(=O)[C@H](Cc1ccc(O)cc1)NC(=O)[C@H](CC(=O)O)NC(=O)[C@H](CO)NC(=O)[C@@H](NC(=O)[C@H](Cc1ccccc1)NC(=O)[C@@H](NC(=O)CNC(=O)[C@H](CCC(N)=O)NC(=O)[C@H](CO)NC(=O)[C@@H](N)Cc1c[nH]cn1)[C@@H](C)O)[C@@H](C)O)C(=O)N[C@@H](CC(=O)O)C(=O)N[C@@H](CO)C(=O)N[C@@H](CCCNC(=N)N)C(=O)N[C@@H](CCCNC(=N)N)C(=O)N[C@@H](C)C(=O)N[C@@H](CCC(N)=O)C(=O)N[C@@H](CC(=O)O)C(=O)N[C@@H](Cc1ccccc1)C(=O)N[C@H](C(=O)N[C@@H](CCCCNC(=O)COCCOCCNC(=O)COCCOCCNC(=O)CC[C@H](NC(=O)CC[C@H](NC(=O)CC[C@H](NC(=O)CCCCCCCCCCCCCCCCC(=O)O)C(=O)O)C(=O)O)C(=O)O)C(=O)N[C@@H](Cc1c[nH]c2ccccc12)C(=O)N[C@@H](CC(C)C)C(=O)N[C@@H](CC(C)C)C(=O)N[C@@H](CO)C(=O)N[C@H](C(=O)O)[C@@H](C)O)C(C)C [Example 69, N^ε24-[2-[2-[2-[[2-[2-[2-[[(4S)-4-carboxy-4-[[(4S)-4-carboxy-4-[[(4S)-4-carboxy-4-(17-carboxyheptadecanoylamino)butanoyl]amino]butanoyl]amino]butanoyl]amino]ethoxy]ethoxy]acetyl]amino]ethoxy]ethoxy]acetyl]-[Lys^24,Leu^27,Ser^28]-Glucagon]"
4,0.942 nM,"CC(C)C[C@H](NC(=O)[C@H](Cc1ccc(O)cc1)NC(=O)[C@H](CCCCN)NC(=O)[C@H](CO)NC(=O)[C@H](Cc1ccc(O)cc1)NC(=O)[C@H](CC(=O)O)NC(=O)[C@H](CO)NC(=O)[C@@H](NC(=O)[C@H](Cc1ccccc1)NC(=O)[C@@H](NC(=O)CNC(=O)[C@H](CCC(N)=O)NC(=O)[C@H](CO)NC(=O)[C@@H](N)Cc1c[nH]cn1)[C@@H](C)O)[C@@H](C)O)C(=O)N[C@@H](CC(=O)O)C(=O)N[C@@H](CO)C(=O)N[C@@H](CCC(N)=O)C(=O)N[C@@H](CCCNC(=N)N)C(=O)N[C@@H](C)C(=O)N[C@@H](CCC(N)=O)C(=O)N[C@@H](CC(=O)O)C(=O)N[C@@H](Cc1ccccc1)C(=O)N[C@H](C(=O)N[C@@H](CCCCNC(=O)COCCOCCNC(=O)COCCOCCNC(=O)CC[C@H](NC(=O)CCCCCCCCCCCCCCCCC(=O)O)C(=O)O)C(=O)N[C@@H](Cc1c[nH]c2ccccc12)C(=O)N[C@@H](CC(C)C)C(=O)N[C@H](C(=O)N[C@@H](CCCCN)C(=O)N[C@H](C(=O)NCC(=O)N1CCC[C@H]1C(N)=O)[C@@H](C)O)C(C)C)C(C)C [Example 33, (N^ε24-([2-[2-[2-[[2-[2-[2-[[(4S)-5-hydroxy-4-[(18-hydroxy-18-oxooctadecanoyl)amino]-5-oxopentanoyl]amino]ethoxy]ethoxy]acetyl]amino]ethoxy]ethoxy]acetyl])[Gln^17, Lys^24, Val^27, Lys^28] Glucagonyl)-Gly-Pro amide] (H-HSQGTFTSDYSKYLDSQRAQDFVK([AEEA-AEEA-γGlu-C18 diacid])WLVKTGP-NH2; N-terminus assumed)"
